Tests used:
human PDE10A full length = molecular target: T1, human PDE10A full length (Homo sapiens, UniProt Q9Y233); assay: PDE10A Scintillation Proximity Assay (SPA), human PDE10A full length assay; assay type: biochemical; conditions: 50 nM cGMP + 50 nM [3H]-cGMP, 20 minutes at room temperature, read-out: PDE10A inhibition IC50
T1 construct: purchased Enzo Life Science, Lausen, Switzerland SE-534
Summary of the method: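 SPA format with full-length enzyme in 20 mM HEPES pH 7.5, 10 mM MgCl2, 0.05 mg/ml BSA, substrate 50 nM cGMP plus 50 nM [3H]-cGMP. Reaction started with substrate, run 20 min at room temperature, stopped with YSi-SPA beads in zinc sulphate. IC50 from scintillation counts over an inhibitor concentration range.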

T1 sequence (Q9Y233 1-779 isoform Q9Y233-1): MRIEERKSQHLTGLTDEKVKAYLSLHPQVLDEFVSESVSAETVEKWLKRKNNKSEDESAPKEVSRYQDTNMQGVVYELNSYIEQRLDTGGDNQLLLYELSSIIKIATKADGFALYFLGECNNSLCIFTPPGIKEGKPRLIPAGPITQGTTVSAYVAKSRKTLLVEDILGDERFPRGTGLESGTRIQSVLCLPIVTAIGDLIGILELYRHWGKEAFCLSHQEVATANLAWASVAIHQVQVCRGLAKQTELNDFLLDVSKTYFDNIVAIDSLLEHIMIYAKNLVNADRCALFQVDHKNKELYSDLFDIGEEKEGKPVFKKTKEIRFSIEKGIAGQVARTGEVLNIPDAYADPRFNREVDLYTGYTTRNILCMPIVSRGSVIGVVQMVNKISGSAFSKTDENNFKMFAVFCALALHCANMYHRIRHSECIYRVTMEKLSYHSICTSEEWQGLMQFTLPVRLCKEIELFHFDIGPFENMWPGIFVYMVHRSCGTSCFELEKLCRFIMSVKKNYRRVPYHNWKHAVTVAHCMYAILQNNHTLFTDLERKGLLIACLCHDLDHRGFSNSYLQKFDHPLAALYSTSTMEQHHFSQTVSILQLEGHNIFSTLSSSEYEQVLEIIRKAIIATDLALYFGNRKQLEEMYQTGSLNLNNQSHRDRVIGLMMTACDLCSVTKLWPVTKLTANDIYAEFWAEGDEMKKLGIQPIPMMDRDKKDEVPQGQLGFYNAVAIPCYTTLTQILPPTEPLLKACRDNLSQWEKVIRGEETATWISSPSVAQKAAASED

| SMILES | melting point | IC50 (human PDE10A full length) |
| --- | --- | --- |
| CCNC(=O)c1cnn(C)c1C(=O)Nc1ccn2nc(-c3ccccc3)nc2c1 [Example 7, N4-ethyl-1-methyl-N5-(2-phenyl-[1,2,4]triazolo[1,5-a]pyridin-7-yl)-1H-pyrazole-4,5-dicarboxamide] | 253 to 255 °C | 1.63 nM |
| Cn1ncc(C(=O)N2CCC2)c1C(=O)Nc1ccn2nc(N3CCOCC3)nc2c1 [Example 8, 4-(Azetidine-1-carbonyl)-1-methyl-N-(2-morpholino-[1,2,4]triazolo[1,5-a]pyridin-7-yl)-1H-pyrazole-5-carboxamide] | 232 to 234 °C | 1.88 nM |
| Cc1c(NC(=O)c2c(C(=O)N3CCC3)cnn2C)ccn2nc(-c3ccccc3)nc12 [Example 9, 4-(Azetidine-1-carbonyl)-1-methyl-N-(8-methyl-2-phenyl-[1,2,4]triazolo[1,5-a]pyridin-7-yl)-1H-pyrazole-5-carboxamide] | 243 to 245 °C | 16.3 nM |
| Cc1cn2nc(-c3ccccc3)nc2cc1NC(=O)c1c(C(=O)N2CCC2)cnn1C [Example 10, 4-(Azetidine-1-carbonyl)-1-methyl-N-(6-methyl-2-phenyl-[1,2,4]triazolo[1,5-a]pyridin-7-yl)-1H-pyrazole-5-carboxamide] | 226 to 228 °C | 0.19 nM |
| CN(C)C(=O)c1cnn(C)c1C(=O)Nc1ccn2nc(-c3ccccc3)nc2c1 [Example 11, 2-Methyl-2H-pyrazole-3,4-dicarboxylic acid 4-dimethylamide 3-[(2-phenyl-[1,2,4]triazolo[1,5-a]pyridin-7-yl)-amide]] | > 250 °C | 0.9 nM |
| Cn1ncc(C(=O)N2CCCC2)c1C(=O)Nc1ccn2nc(-c3ccccc3)nc2c1 [Example 13, 1-Methyl-N-(2-phenyl-[1,2,4]triazolo[1,5-a]pyridin-7-yl)-4-(pyrrolidine-1-carbonyl)-1H-pyrazole-5-carboxamide] | 210 to 215 °C | 0.13 nM |
| Cn1ncc(C(=O)N[C@H]2CCOC2)c1C(=O)Nc1ccn2nc(-c3ccccc3)nc2c1 [Example 14, (S)-1-Methyl-N5-(2-phenyl-[1,2,4]triazolo[1,5-a]pyridin-7-yl)-N4-(tetrahydrofuran-3-yl)-1H-pyrazole-4,5-dicarboxamide] | > 250 °C | 12.4 nM |
| Cn1ncc(C(=O)N[C@@H]2CCOC2)c1C(=O)Nc1ccn2nc(-c3ccccc3)nc2c1 [Example 15, (R)-1-Methyl-N5-(2-phenyl-[1,2,4]triazolo[1,5-a]pyridin-7-yl)-N4-(tetrahydrofuran-3-yl)-1H-pyrazole-4,5-dicarboxamide] | > 250 °C | 4.85 nM |
| COCCCNC(=O)c1cnn(C)c1C(=O)Nc1ccn2nc(-c3ccccc3)nc2c1 [Example 16, N4-(3-Methoxypropyl)-1-methyl-N5-(2-phenyl-[1,2,4]triazolo[1,5-a]pyridin-7-yl)-1H-pyrazole-4,5-dicarboxamide] | 191 to 193 °C | 2.34 nM |
| Cn1ncc(C(=O)NC2COC2)c1C(=O)Nc1ccn2nc(-c3ccccc3)nc2c1 [Example 17, 1-Methyl-N4-(oxetan-3-yl)-N5-(2-phenyl-[1,2,4]triazolo[1,5-a]pyridin-7-yl)-1H-pyrazole-4,5-dicarboxamide] | > 250 °C | 11.8 nM |
| CCN(CC)C(=O)c1cnn(C)c1C(=O)Nc1ccn2nc(-c3ccccc3)nc2c1 [Example 18, N4,N4-diethyl-1-methyl-N5-(2-phenyl-[1,2,4]triazolo[1,5-a]pyridin-7-yl)-1H-pyrazole-4,5-dicarboxamide] | 177 to 179 °C | 0.25 nM |
| CC(C)NC(=O)c1cnn(C)c1C(=O)Nc1ccn2nc(-c3ccccc3)nc2c1 [Example 19, N4-isopropyl-1-methyl-N5-(2-phenyl-[1,2,4]triazolo[1,5-a]pyridin-7-yl)-1H-pyrazole-4,5-dicarboxamide] | > 250 °C | 5.38 nM |
| Cc1ccc(CN(C)C(=O)c2cnn(C)c2C(=O)Nc2ccn3nc(-c4ccccc4)nc3c2)cn1 [Example 20, N4,1-dimethyl-N4-((6-methylpyridin-3-yl)methyl)-N5-(2-phenyl-[1,2,4]triazolo[1,5-a]pyridin-7-yl)-1H-pyrazole-4,5-dicarboxamide] | 110 to 150 °C | 1.24 nM |
| Cn1ncc(C(=O)N2CCS(=O)(=O)CC2)c1C(=O)Nc1ccn2nc(-c3ccccc3)nc2c1 [Example 22, 4-(1,1-Dioxo-thiomorpholine-4-carbonyl)-2-methyl-2H-pyrazole-3-carboxylic acid (2-phenyl-[1,2,4]triazolo[1,5-a]pyridin-7-yl)-amide] | > 250 °C | 9.01 nM |
| CNC(=O)c1cnn(C)c1C(=O)Nc1ccn2nc(-c3ccccc3)nc2c1 [Example 23, N4,1-dimethyl-N5-(2-phenyl-[1,2,4]triazolo[1,5-a]pyridin-7-yl)-1H-pyrazole-4,5-dicarboxamide] | > 250 °C | 4.25 nM |
| COC1CN(C(=O)c2cnn(C)c2C(=O)Nc2ccn3nc(-c4ccccc4)nc3c2)C1 [Example 24, 4-(3-Methoxyazetidine-1-carbonyl)-1-methyl-N-(2-phenyl-[1,2,4]triazolo[1,5-a]pyridin-7-yl)-1H-pyrazole-5-carboxamide] | 269 to 270 °C | 21.5 nM |
| Cn1ncc(C(=O)N2CC(F)C2)c1C(=O)Nc1ccn2nc(-c3ccccc3)nc2c1 [Example 25, 4-(3-Fluoroazetidine-1-carbonyl)-1-methyl-N-(2-phenyl-[1,2,4]triazolo[1,5-a]pyridin-7-yl)-1H-pyrazole-5-carboxamide] | 259 to 262 °C | 0.39 nM |
| CCOC(=O)c1cnn(C)c1C(=O)Nc1ccn2nc(-c3ccccc3)nc2c1 [Example 28, ethyl 1-methyl-5-(2-phenyl-[1,2,4]triazolo[1,5-a]pyridin-7-ylcarbamoyl)-1H-pyrazole-4-carboxylate] | 242 to 243 °C | 7.3 nM |
| Cn1ncc(C(=O)N2CCOCC2)c1C(=O)Nc1ccn2nc(N3CCOCC3)nc2c1 [Example 29, 1-Methyl-4-(morpholine-4-carbonyl)-N-(2-morpholino-[1,2,4]triazolo[1,5-a]pyridin-7-yl)-1H-pyrazole-5-carboxamide] | 206 to 208 °C | 40.5 nM |
| Cn1ncc(C(=O)N2CCC2)c1C(=O)Nc1cc2nc(-c3ccccc3)nn2cc1F [Example 30, 4-(Azetidine-1-carbonyl)-N-(6-fluoro-2-phenyl-[1,2,4]triazolo[1,5-a]pyridin-7-yl)-1-methyl-1H-pyrazole-5-carboxamide] | > 250 °C | 1.27 nM |
| Cn1ncc(C(=O)N2CCCC2)c1C(=O)Nc1cc2nc(-c3ccccc3)nn2cc1F [Example 31, N-(6-fluoro-2-phenyl-[1,2,4]triazolo[1,5-a]pyridin-7-yl)-1-methyl-4-(pyrrolidine-1-carbonyl)-1H-pyrazole-5-carboxamide] | 250 to 251 °C | 0.48 nM |
| Cn1ncc(C(=O)N2CCOCC2)c1C(=O)Nc1cc2nc(-c3ccccc3)nn2cc1F [Example 32, 2-Methyl-4-(morpholine-4-carbonyl)-2H-pyrazole-3-carboxylic acid (6-fluoro-2-phenyl-[1,2,4]triazolo[1,5-a]pyridin-7-yl)-amide] | 224 to 225 °C | 0.98 nM |

— patent publication US8349824B2, “Triazolopyridine compounds” (Hoffmann-La Roche Inc., priority 2010, dated 2013)
